Series [1] concerns Plasmodium falciparum. The series is described as follows: Antiplasmodial activity against Plasmodium falciparum by SYBR Green staining-based fluorescence assay. Type of series: functional, organism-based.
A further series concerns Plasmodium yoelii yoelii. The series is described as follows: Antimalarial activity against Plasmodium yoelii yoelii infected in mouse. Type of series: functional.
Series [2] has as its system Plasmodium falciparum. The series is described as follows: Antiplasmodial activity against liver stage of drug-sensitive Plasmodium falciparum D10. The format is functional, organism-based.
A further series has as its target Lysine--tRNA ligase (Homo sapiens, UniProt Q15046). Description: Inhibition of human recombinant cytoplasmic lysyl-tRNA synthetase.
Series [3] relates to Plasmodium falciparum. The series is described as follows: Antiplasmodial activity against liver stage of drug-sensitive Plasmodium falciparum 3D7. The format is functional, organism-based. The following applies: 3D7, Liver.
Series [4] has as its system Plasmodium falciparum. Description: Antimalarial activity against Plasmodium falciparum infected in SCID mouse. Type of series: functional.
In series [5] the test system is Plasmodium berghei. The series is described as follows: Antimalarial activity against Plasmodium berghei infected in po dosed mouse. The format is functional.
Series [6] has as its system Plasmodium falciparum. Description: Antiplasmodial activity against multidrug-resistant Plasmodium falciparum W2 infected in human erythrocytes after 24 hrs by [3H]-hypoxanthine incorporation assay.
The subject of series [7] is Plasmodium falciparum. The series is described as follows: Antiplasmodial activity against chloroquine-resistant Plasmodium falciparum K1. The format is functional, organism-based.
The subject of series [8] is Plasmodium falciparum. Description: Antiplasmodial activity against drug-sensitive Plasmodium falciparum 3D7. The format is functional, organism-based.
The subject of series [9] is Plasmodium. The series is described as follows: Antimalarial activity against Plasmodium infected in mouse. Type of series: functional.
Series [10] relates to Plasmodium vinckei. The series is described as follows: Antimalarial activity against Plasmodium vinckei infected in ip dosed Swiss mouse at 5 to 10% parasitemia. Type of series: functional.
The nature of series [11]: Oral bioavailability in mouse. The format is ADME, organism-based. The note with it: in vivo.
For series [12], the system named is Plasmodium. The series is described as follows: Antiplasmodial activity against Plasmodium. The format is functional.
Series [13] deals with Plasmodium vinckei. The series is described as follows: Antimalarial activity against Plasmodium vinckei infected in po dosed Swiss mouse. The format is functional.
In series [14] the test system is Plasmodium. The series is described as follows: Antimalarial activity against Plasmodium infected in ip dosed mouse. Type of series: functional.
The subject of series [15] is Plasmodium vinckei. The series is described as follows: Antimalarial activity against Plasmodium vinckei infected in ip dosed Swiss mouse at 0.5 to 1% parasitemia. Type of series: functional.
Series [16] can be described thus: Half life in human. The format is ADME, organism-based. The following applies: in vivo.
The subject of series [17] is Plasmodium falciparum. Description: Antiplasmodial activity against chloroquine-resistant Plasmodium falciparum K1 infected in human erythrocytes after 48 hrs by [3H]-hypoxanthine incorporation assay. The format is functional, organism-based.
Series [18] relates to Plasmodium falciparum. The series is described as follows: Antimalarial activity against Plasmodium falciparum infected in po dosed mouse assessed as decrease in parasitemia administered on day 1 postinfection measured on day 3 by FACS analysis. Type of series: functional.
The subject of series [19] is Plasmodium berghei. The series is described as follows: Antimalarial activity against Plasmodium berghei ANKA infected in mouse assessed as reduction in parasitemia at 40 mg/kg, ip relative to control. Type of series: functional. The note with it: route intraperitoneal.
The test system of series [20] is Plasmodium falciparum. Description: Antiplasmodial activity against Plasmodium falciparum. The format is functional, organism-based.
The nature of series [21]: Toxicity in po dosed Sprague-Dawley rat. The format is organism-based. The following applies: in vivo.
Series [22] can be described thus: Oral bioavailability in rat. The note with it: in vivo. The format is ADME, organism-based.
In series [23] the test system is Plasmodium falciparum. Description: Antiplasmodial activity against blood stage of Plasmodium falciparum. Type of series: functional, organism-based.
Another series deals with Plasmodium yoelii. Description: Antiplasmodial activity against liver stage of Plasmodium yoelii. Type of series: functional, organism-based.
The test system of series [24] is Plasmodium falciparum. The series is described as follows: Antiplasmodial activity against multidrug-resistant Plasmodium falciparum W2 infected in human erythrocytes. The format is functional, organism-based.
Series [25] in a line: Terminal half life in human. Type of series: ADME, organism-based. The following applies: in vivo, read-out: beta t1/2 (converted).
Series [26] relates to Plasmodium falciparum. Description: Antiplasmodial activity against erythrocytic stage of multidrug-resistant Plasmodium falciparum W2. The format is functional, organism-based.
In series [27] the test system is Plasmodium berghei. The series is described as follows: Antimalarial activity against Plasmodium berghei str. ANKA infected in po dosed mouse assessed as reduction in parasitemia. The format is functional.

Where only a bound is given, the exact number is not on record here.

Lysine--tRNA ligase, sequence (Q15046 whole entry): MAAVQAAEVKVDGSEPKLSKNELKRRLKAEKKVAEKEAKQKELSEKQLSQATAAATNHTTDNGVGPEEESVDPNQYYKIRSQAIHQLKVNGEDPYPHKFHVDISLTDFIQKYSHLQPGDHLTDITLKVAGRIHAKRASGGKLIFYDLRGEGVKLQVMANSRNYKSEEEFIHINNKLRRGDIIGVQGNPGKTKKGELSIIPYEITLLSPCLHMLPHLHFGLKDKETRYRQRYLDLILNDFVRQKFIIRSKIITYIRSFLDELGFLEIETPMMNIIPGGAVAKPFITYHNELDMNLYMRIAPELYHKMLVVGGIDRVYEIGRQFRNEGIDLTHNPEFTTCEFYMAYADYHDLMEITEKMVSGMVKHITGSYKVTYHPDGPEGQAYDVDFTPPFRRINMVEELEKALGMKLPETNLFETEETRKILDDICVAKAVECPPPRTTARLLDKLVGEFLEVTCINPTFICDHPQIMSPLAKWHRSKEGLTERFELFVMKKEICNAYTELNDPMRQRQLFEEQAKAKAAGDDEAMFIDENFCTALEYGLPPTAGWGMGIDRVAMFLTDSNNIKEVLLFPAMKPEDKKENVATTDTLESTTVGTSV

Consider `C[C@@]12OC(=O)[C@]1([C@@H](O)[C@@H]1C=CCCC1)NC(=O)[C@@H]2CCCl` [MARIZOMIB], for which the concentration giving a half-maximal response (EC50) in the series with Plasmodium falciparum [1] is 11 nM. Besides, the ED50 in the series on Plasmodium yoelii yoelii amounted to 0.25 mg/kg/day.

Consider `C[C@H]1CCC[C@H](C[C@H]2Cc3cc(O)cc(O)c3C(=O)O2)O1` [CLADOSPORIN], for which the results for the EC50 with Plasmodium falciparum [2] and in the series with Plasmodium falciparum [3] were 90 nM and 45 nM, respectively. On Lysine--tRNA ligase, the IC50 was > 20000 nM.

Molecule `CCN(CC)CCCC(C)Nc1ccnc2cc(Cl)ccc12` (configuration not stated) [CHLOROQUINE] came in with an ED90 in the series with Plasmodium falciparum [4] of 6.4 mg/kg/day. The molecule also had an ED50 with Plasmodium berghei [5] of 1.9 mg/kg. Besides, the EC50 in the series on Plasmodium falciparum [6] is 49 nM.

Turning to `CN1CCN(C2CCN(C(=O)CC3CCC4(CC3)OOC3(OO4)C4CC5CC(C4)CC3C5)CC2)CC1` (configuration not stated), the half-inhibitory concentration (IC50) is 1.9 nM in the series with Plasmodium falciparum [7] and 4.9 nM with Plasmodium falciparum [8]. The molecule also yielded an ED50 in the series with Plasmodium [9] of 1.8 mg/kg/day.

Consider `CCN(CC)Cc1cc(Nc2ccnc3cc(Cl)ccc23)ccc1O`, for which the EC50 in the series on Plasmodium falciparum [8] was 11 nM.

For `Cc1c(CCO)sc[n+]1CCCCCCCCCCCC[n+]1csc(CCO)c1C.[I-].[I-]`, the ED50 in the series with Plasmodium vinckei [10] is ≤ 0.5 mg/kg/day; in the series on Plasmodium vinckei [13] it was 13 mg/kg/day; in the series with Plasmodium [14], 0.2 mg/kg/day; in the series with Plasmodium vinckei [15] it was 1 mg/kg/day. The molecule also returned a bioavailability in [11] of 2%. The molecule also registered an EC50 in the series on Plasmodium [12] of 2 nM.

Consider `CC(C)(C)c1cc(C(=O)N2CCN(c3ncccc3C(F)(F)F)CC2)n(Cc2ccccc2)n1`, for which, in the series with Plasmodium falciparum [8], the EC50 came out at 100 nM.

Molecule `C[C@H]1[C@H](OC(=O)CCC(=O)O)O[C@@H]2O[C@@]3(C)CC[C@H]4[C@H](C)CC[C@@H]1[C@@]24OO3` [ARTESUNATE] showed a half-life in [16] of 1 h. Moreover, in the series on Plasmodium falciparum [17], a half-maximal response (EC50) required 3.1 nM. The ED50 in the series with Plasmodium falciparum [18] worked out at 6.2 mg/kg/day.

For the molecule `COc1cc2c(NC3CCN(C)CC3)nc(N3CCCN(C)CC3)nc2cc1OCc1ccccc1`, the EC50 in the series with Plasmodium falciparum [8] turned out to be 100 nM. Further, the “fold change (FC)” value in the series on Plasmodium berghei [19] is listed as 18.

In the series with Plasmodium falciparum [20], `c1cc([C@H]2CC[C@]3(CC2)OO[C@]2(O3)C3CC4CC(C3)CC2C4)ccc1OCCN1CCOCC1` [ARTEFENOMEL] had an EC50 of 3.4 nM. Further, it took a dose of 20 mg/kg to reach the 50% effect level in the series on Plasmodium [9] (ED50). The molecule also registered an MTD in series [21] of 300 mg/kg.

Turning to `CO[C@H]1O[C@@H]2O[C@@]3(C)CC[C@H]4[C@H](C)CC[C@@H]([C@H]1C)[C@@]24OO3`, the half-life in series [16] was 1 h.

Consider `CN1CCN(C2CCN(C(=O)CC3CCC4(CC3)OOC3(OO4)C4CC5CC(C4)CC3C5)CC2)CC1.Cc1ccc(S(=O)(=O)O)cc1` (configuration not stated), for which the results for the bioavailability in series [11] and in series [22] were 42% and 38%, respectively.

Take `C[C@H](NC(=O)[C@H](Cc1ccccc1)C[C@@H](O)[C@H](Cc1ccccc1)NC(=O)OC(C)(C)C)C(=O)N[C@@H]1C(=O)N(C)c2ccccc2-c2ccccc21`: the EC50 is 17 nM with Plasmodium falciparum [23] and 7.8 nM in the series on Plasmodium yoelii.

Turning to `CCCCN(CCCC)CC(O)c1cc(Cl)cc2c1-c1ccc(Cl)cc1/C2=C/c1ccc(Cl)cc1` (configuration not stated) [LUMEFANTRINE], the EC50 in the series on Plasmodium falciparum [24] turned out to be 0.45 nM. Besides, the half-life in series [25] is 72 h.

In turn, `O[C@@H](c1cc(C(F)(F)F)nc2c(C(F)(F)F)cccc12)[C@H]1CCCCN1` (relative stereo) [(S,R)-MEFLOQUINE] registered a half-life in series [16] of 336 h. Also, in the series on Plasmodium falciparum [26], the response was half-maximal at 7 nM (EC50). For the same molecule, the ED50 in the series on Plasmodium berghei [27] was found to be 3.3 mg/kg.

One may read the EC50 as the midpoint of the concentration-response curve. Read a low EC50 as an effect from little substance. The term ED50 denotes the dose that gives a 50% effect, or the effect in half of the subjects. What is called IC50 is the concentration needed to halve the response being measured. The bioavailability is the share of a dose that reaches the circulation, judged against a reference dose that is usually intravenous.

Source of the values: ChEMBL document CHEMBL2385043, “Recent advances in malaria drug discovery” (Bioorg Med Chem Lett, 2013).
